The results in this text go back to patent US8618154B2, “LXR modulators” (Bristol-Myers Squibb Company, priority 2009, dated 2013).

One data set has as its system ABCA1 gene expression. Briefly: Human whole blood assay (hWBA), ABCA1 mRNA induction. Format: cell-based. Conditions: for Emax: Homo sapiens, 4 h, percent of reference pan agonist (maximal activity defined as 100%), read-out: hWBA hABCA1 L30 Max P (%); for EC50: human whole blood, 4 hours, ABCA1 mRNA normalized to L30, read-out: hWBA hABCA1 L30 EC50. How it is done:
Human whole blood was collected in EDTA containing tubes and 0.5 mL aliquots were immediately mixed in a 96 well block with the appropriate serial dilution of test compound, in 0.5% DMSO. Compounds were incubated with blood at 37° C. with constant rocking for 4 hours. After incubation, cells were lysed in ABI Nucleic Acid Purification Lysis Solution (Applied Biosystems catalog #4305895) and frozen at −80° C. Following cell lysis, total RNA was purified using an ABI 6100 RNA prep station according to the protocol provided by the manufacturer. cDNAs were synthesized, and mRNAs were quantitated using SYBR-Green Quantitative PCR (Q-PCR) on an ABI Prism 7900HT Sequence Detection System and reagents from Quanta Bioscience Inc (Quanta Bioscience catalog #95047 and 95055).
The quantity of each mRNA was determined by the ΔΔCT method (Michael W. Pfaffl. A new mathematical model for relative quantification in real-time RT-PCR. Nucleic Acids Research, 2001, Vol. 29, No. 9 e45) and normalized to the quantity of two control mRNAs, i.e. ribosomal protein L-30 (L-30) and beta-2-microglobulin (B2M). The induction of ABCA1 and ABCG1 by test compound was graphed as a percent of the reference compound, 2-(4-(5-(5-cyano-1-(2,4-difluorobenzyl)-6-oxo-4-(trifluoromethyl)-1,6-dihydropyridin-2-yl)thiophen-2-yl)-3-methylphenyl)acetic acid, and potency (EC50) and activity (% MAX) were calculated by fitting a sigmoidal response curve as a function of log transformed compound concentration using XLFit software according to the equation y=A+((B−A)/(1+((C/x)^D))).

Data set [1] can be described thus: High throughput metabolic stability in human microsomes. The class given is in vitro ADME. As to conditions: parent compound remaining at 10 minutes, human liver microsomes. As to the method:
The metabolic stability assay evaluates CYP-mediated metabolic stability in vitro using Human liver microsomes after a ten-minute incubation.
Test compound is received as a 3.5 mM stock solution in 100 percent DMSO. Compound is diluted to create a 50 μM acetonitrile (ACN) solution containing 1.4% DMSO, which is then used as a 100× stock for incubation with human liver microsomes. Each compound is tested in duplicate. Compound, NADPH and liver microsome solutions are combined for incubation in three steps: • 1) 152 μl of liver microsome suspension, protein concentration of 1.1 mg/ml in 100 mM NaPi, pH 7.4, 5 mM MgCl2 buffer, is pre-warmed at 37° C. • 2) 1.7 μl of 50 μM compound (98.6% ACN, 1.4% DMSO) is added to the same tube and pre-incubated at 37° C. for 5 minutes. • 3) The reaction is initiated by the addition of 17 μl of pre-warmed 10 mM NADPH solution in 100 mM NaPi, pH 7.4.
Reaction components are mixed well, and 75 μl are immediately transferred into 150 μl quench/stop solution (zero-time point, T0). Reactions are incubated at 37° C. for 10 minutes and then an additional 75 μl aliquot is transferred into 150 μl quench solution. Acetonitrile containing 100 μM DMN (a UV standard for injection quality control), is used as the quench solution to terminate metabolic reactions.
Quenched mixtures are centrifuged at 1500 rpm (˜500× g) in an Allegra X-12 centrifuge, SX4750 rotor (Beckman Coulter Inc., Fullerton, Calif.) for fifteen minutes to pellet denatured microsomes. A volume of 90 μl of supernatant extract, containing the mixture of parent compound and its metabolites, is then transferred to a separate 96-well plate for UV-LC/MS-MS analysis to determine the per cent of parent compound that is remaining in the mixture.
The mass spectrometric conditions obtained from automated infusion are used to analyze incubation samples from the Metabolic Stability assay. The injection volume is 5 μl and the flow rate is 0.8 ml/min. The gradient used is show in the table below. All samples are injected with the gradient using mobile phase A and B first. If necessary (for instance, for chromatographic reasons), samples are re-injected with the same gradient, but using mobile phase C and D. All LC-MS/MS analysis parameters are captured electronically in the raw data files.
Peak integration is performed with the Xcalibur™ software. The percent remaining calculation is performed by comparing the LC-MS/MS peak areas from the T10minute samples to those from the T0minute samples for each compound.
A general note: Liver microsomes are vesicles of endoplasmic reticulum, rich in cytochrome P450 enzymes.

Bounds are passed on as bounds.

On to `CC(C)(O)c1cn(-c2ccc(-c3cc(F)c(CO)c(S(C)(=O)=O)c3)cc2F)c(C(C)(C)c2c(Cl)cccc2Cl)n1` [Example 9, 2-(2-(2-(2,6-dichlorophenyl)propan-2-yl)-1-(3,3′-difluoro-4′-(hydroxymethyl)-5′-(methylsulfonyl)biphenyl-4-yl)-1H-imidazol-4-yl)propan-2-ol], for which, in the data set with ABCA1 gene expression, the Emax turned out to be 28% and the EC50 (as a rule, the concentration giving half of the maximal effect) was less than 100 nM. In data set [1], the “Human Microsome % Remaining” value is on record as greater than 80%.

As for `CC(C)(O)c1cn(-c2ccc(-c3cc(F)c(CO)c(S(C)(=O)=O)c3)cc2)c(C(C)(C)c2cccc(F)c2Cl)n1` [Example 4, 2-(2-(2-(2-chloro-3-fluorophenyl)propan-2-yl)-1-(3′-fluoro-4′-(hydroxymethyl)-5′-(methylsulfonyl)biphenyl-4-yl)-1H-imidazol-4-yl)propan-2-ol], in the data set with ABCA1 gene expression, the Emax amounted to 34% and the concentration giving a half-maximal response (EC50) is less than 100 nM. Also, the “Human Microsome % Remaining” value in data set [1] is listed as greater than 80%.

Consider `CC(C)(O)c1cn(-c2ccc(-c3cc(F)c(CO)c(S(C)(=O)=O)c3)cc2F)c(Cc2ccccc2C(F)(F)F)n1` [Example 12, 2-(1-(3,3′-difluoro-4′-(hydroxymethyl)-5′-(methylsulfonyl)biphenyl-4-yl)-2-(2-(trifluoromethyl)benzyl)-1H-imidazol-4-yl)propan-2-ol], for which, in the data set with ABCA1 gene expression, the Emax is 32% and the EC50 was less than 100 nM. Moreover, the “Human Microsome % Remaining” value in data set [1] was greater than 80%.

With `Cc1ccccc1Cc1nc(C(C)(C)O)cn1-c1ccc(-c2cc(F)c(CO)c(S(C)(=O)=O)c2)cc1` [Example 17, 2-(1-(3′-fluoro-4′-(hydroxymethyl)-5′-(methylsulfonyl)biphenyl-4-yl)-2-(2-methylbenzyl)-1H-imidazol-4-yl)propan-2-ol], in the data set with ABCA1 gene expression, the Emax turned out to be 20% and the EC50 is less than 100 nM. Also, in data set [1], the “Human Microsome % Remaining” value is greater than 80%.

Consider `CC(C)(O)c1cn(-c2ccc(-c3cc(F)c(CO)c(S(C)(=O)=O)c3)cc2F)c(Cc2ccccc2F)n1` [Example 16, 2-(1-(3,3′-difluoro-4′-(hydroxymethyl)-5′-(methylsulfonyl)biphenyl-4-yl)-2-(2-fluorobenzyl)-1H-imidazol-4-yl)propan-2-ol], for which, in the data set on ABCA1 gene expression, the Emax worked out at 41% and the EC50 is less than 100 nM. The “Human Microsome % Remaining” value in data set [1] is greater than 80%.

`CC(C)(O)c1cn(-c2ccc(-c3cc(F)c(CO)c(S(C)(=O)=O)c3)cc2)c(Cc2cc(F)ccc2Cl)n1` [Example 19, 2-[2-(2-Chloro-5-fluoro-benzyl)-1-(3′-fluoro-4′-hydroxymethyl-5′-methanesulfonyl-biphenyl-4-yl)-1H-imidazol-4-yl]-propan-2-ol]: in the data set on ABCA1 gene expression, the Emax was found to be 35% and the EC50 is less than 100 nM. Besides, the “Human Microsome % Remaining” value in data set [1] is given as greater than 80%.
